Drawing on US9856279B2 (AGIOS PHARMACEUTICALS, INC, priority 2011, dated 2018), this text covers IC50 for 18 molecules.

A value given as a limit tells only on which side of the number the result lay.

For one experiment, the system named is U87MG cells. Briefly: Cellular assay for IDH1m inhibitors: inhibition of 2-HG production (LC-MS, 48 hours) in U87MG cells. The class given is cell-based. Particulars: Homo sapiens, U-87 MG, inhibition of 2-HG production, U87R132H cells; read-out: U87R132H IC50. In outline: (§1)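 Inhibition of 2-HG production was assessed in cells seeded at 5000/well and exposed to compound for 48 h (final DMSO 0.2%). Supernatant 2-HG was analysed by LC-MS.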

The next experiment has as its system HT1080 cells. The experiment is described as follows: Cellular assay for IDH1m inhibitors: inhibition of 2-HG production (LC-MS, 48 hours) in HT1080 cells. The format is cell-based. The note with it: Homo sapiens, HT-1080; inhibition of 2-HG production, HT1080 cells; read-out: HT1080 IC50. The method, boiled down: as §1
A further experiment has as its target IDH1 R132H (Homo sapiens, UniProt O75874, R132H). The experiment is described as follows: Assay for IDH1 R132H inhibitors (NADPH/aKG, resazurin detection). The format is biochemical. Particulars: enzyme assay of Example 12; read-out: IDH1R132H IC50. The method, boiled down: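 Read-out is resorufin fluorescence (Ex544/Em590) 5 min after adding a 30 μM resazurin detection mix. Before that, mutant enzyme (0.2 μg/ml in its mix) ran 50 min at room temperature with compound, 8 uM NADPH and 2 mM aKG (mix levels) in Tris pH 7.5 with NaCl, MgCl2, BSA.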

IDH1 R132H, sequence (O75874 whole entry R132H): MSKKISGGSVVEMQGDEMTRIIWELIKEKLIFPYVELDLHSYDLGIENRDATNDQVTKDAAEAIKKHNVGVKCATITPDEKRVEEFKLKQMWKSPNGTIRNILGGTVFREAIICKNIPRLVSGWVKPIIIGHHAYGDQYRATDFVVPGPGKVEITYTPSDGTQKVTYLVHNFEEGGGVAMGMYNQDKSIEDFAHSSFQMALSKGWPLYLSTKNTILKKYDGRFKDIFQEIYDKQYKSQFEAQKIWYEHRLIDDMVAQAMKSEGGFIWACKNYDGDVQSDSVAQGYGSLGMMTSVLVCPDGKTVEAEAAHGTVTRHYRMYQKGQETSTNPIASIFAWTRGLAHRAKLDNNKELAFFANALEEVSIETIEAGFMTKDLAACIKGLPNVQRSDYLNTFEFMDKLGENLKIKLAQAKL

For the molecule `COCCC(=O)N1CCN(c2nc(C3CC3)c(-c3cccc(NS(C)(=O)=O)c3)c(C)c2C#N)C[C@H]1C` [Compound 350, (R)—N-(3-{5-cyano-2-cyclopropyl-6-[4-(3-methoxy-propionyl)-3-methyl-piperazin-1-yl]-4-methyl-pyridin-3-yl}-phenyl)-methane sulfonamide], the IC50 is 500 to 1000 nM in the experiment on U87MG cells, 1000 to 10000 nM in the experiment with HT1080 cells and below 500 nM on IDH1 R132H.

As to `COCCC(=O)N1CCN(c2nc(C3CC3)c(-c3c(C)noc3C)c(C)c2C#N)C[C@H]1C` [Compound 351, (R)-6-cyclopropyl-5-(3,5-dimethyl-isoxazol-4-yl)-2-[4-(3-methoxy-propionyl)-3-methyl-piperazin-1-yl]-4-methyl-nicotinonitrile], the IC50 was 500 to 1000 nM in the experiment with U87MG cells, 1000 to 10000 nM in the experiment with HT1080 cells and below 500 nM at IDH1 R132H.

Turning to `COCCC(=O)N1CCN(c2nc(C3CC3)c(-c3ccc4scnc4c3)cc2C#N)C[C@H]1C` [Compound 352, (R)-5-benzothiazol-5-yl-6-cyclopropyl-2-[4-(3-methoxy-propionyl)-3-methyl-piperazin-1-yl]-nicotinonitrile], the figures for the IC50 in the experiment with U87MG cells, in the experiment on HT1080 cells and at IDH1 R132H were 500 to 1000 nM, 1000 to 10000 nM and below 500 nM, respectively.

Regarding `COCCC(=O)N1CCN(c2nc(C3CC3)c(-c3ccc4ncccc4c3)cc2C#N)C[C@H]1C` [Compound 353, (R)-6-cyclopropyl-2-[4-(3-methoxy-propionyl)-3-methyl-piperazin-1-yl]-5-quinolin-6-yl-nicotinonitrile], the IC50 is 500 to 1000 nM in the experiment with U87MG cells, 500 to 1000 nM in the experiment with HT1080 cells and below 500 nM on IDH1 R132H.

For the molecule `COCCC(=O)N1CCN(c2nc(C3CC3)c(Nc3ccnc4ccccc34)cc2C#N)C[C@H]1C` [Compound 356, (R)-6-cyclopropyl-2-(4-(3-methoxypropanoyl)-3-methylpiperazin-1-yl)-5-(quinolin-4-ylamino)nicotinonitrile], the IC50 in the experiment with U87MG cells was 1000 to 10000 nM; with HT1080 cells, 1000 to 10000 nM; at IDH1 R132H it was below 500 nM.

For `COCCC(=O)N1CCN(c2nc(C3CC3)c(-c3cc4ccccc4nc3Cl)cc2C#N)C[C@H]1C` [Compound 360, (R)-5-(2-chloro-quinolin-3-yl)-6-cyclopropyl-2-[4-(3-methoxy-propionyl)-3-methyl-piperazin-1-yl]-nicotinonitrile], the IC50 was 1000 to 10000 nM in the experiment on U87MG cells, 1000 to 10000 nM in the experiment with HT1080 cells and below 500 nM at IDH1 R132H.

Consider `COCCC(=O)N1CCN(c2nc(C3CC3)c(-c3ccc4[nH]cnc4c3)cc2C#N)C[C@H]1C` [Compound 361, (R)-5-(1H-benzoimidazol-5-yl)-6-cyclopropyl-2-[4-(3-methoxy-propionyl)-3-methyl-piperazin-1-yl]-nicotinonitrile], for which the IC50 in the experiment on U87MG cells is 500 to 1000 nM; in the experiment on HT1080 cells it was 1000 to 10000 nM; at IDH1 R132H, below 500 nM.

Take `COCCC(=O)N1CCN(c2nc(C3CC3)c(-c3cccc(-c4cc[nH]n4)c3)cc2C#N)C[C@H]1C` [Compound 363, (R)-6-cyclopropyl-2-[4-(3-methoxy-propionyl)-3-methyl-piperazin-1-yl]-5-[3-(1H-pyrazol-3-yl)-phenyl]-nicotinonitrile]: the results for the half-maximal inhibitory concentration (IC50) with U87MG cells, in the experiment on HT1080 cells and at IDH1 R132H were 500 to 1000 nM, 1000 to 10000 nM and below 500 nM, respectively.

In the case of `COCCC(=O)N1CCN(c2nc(C3CC3)c(-c3ccc4ncsc4c3)cc2C#N)C[C@H]1C` [Compound 364, (R)-5-benzothiazol-6-yl-6-cyclopropyl-2-[4-(3-methoxy-propionyl)-3-methyl-piperazin-1-yl]-nicotinonitrile], the IC50 with U87MG cells was below 500 nM; in the experiment with HT1080 cells, 500 to 1000 nM; on IDH1 R132H, below 500 nM.

As to `COCCC(=O)N1CCN(c2nc(C3CC3)c(-c3cccc4cc[nH]c34)cc2C#N)C[C@H]1C` [Compound 373, (R)-6-cyclopropyl-5-(1H-indol-7-yl)-2-[4-(3-methoxy-propionyl)-3-methyl-piperazin-1-yl]-nicotinonitrile], the IC50 in the experiment on U87MG cells was 500 to 1000 nM; in the experiment with HT1080 cells it was 1000 to 10000 nM; on IDH1 R132H, below 500 nM.

On to `COCCC(=O)N1CCN(c2nc(C3CC3)c(-c3cnc4[nH]ccc4c3)cc2C#N)C[C@H]1C` [Compound 374, (R)-6-cyclopropyl-2-[4-(3-methoxy-propionyl)-3-methyl-piperazin-1-yl]-5-(1H-pyrrolo[2,3-b]pyridin-5-yl)-nicotinonitrile], for which the results for the half-maximal inhibitory concentration (IC50) with U87MG cells, in the experiment on HT1080 cells and at IDH1 R132H were 500 to 1000 nM, 1000 to 10000 nM and below 500 nM, respectively.

In the case of `CCOC(=O)N1CCN(c2cc(C#N)c(N3CCN(C(=O)CCOC)[C@H](C)C3)nc2C2CC2)CC1` [Compound 376, (R)-ethyl 4-(5-cyano-2-cyclopropyl-6-(4-(3-methoxypropanoyl)-3-methylpiperazin-1-yl)pyridin-3-yl)piperazine-1-carboxylate], the IC50 was 500 to 1000 nM in the experiment on U87MG cells, 1000 to 10000 nM in the experiment on HT1080 cells and below 500 nM at IDH1 R132H.

In the case of `CCS(=O)(=O)N1CCN(c2cc(C#N)c(N3CCN(C(=O)CCOC)[C@H](C)C3)nc2C2CC2)CC1` [Compound 377, (R)-6-cyclopropyl-5-(4-(ethylsulfonyl)piperazin-1-yl)-2-(4-(3-methoxypropanoyl)-3-methylpiperazin-1-yl)nicotinonitrile], the concentration for half-maximal inhibition (IC50) is below 500 nM with U87MG cells, 500 to 1000 nM in the experiment with HT1080 cells and below 500 nM at IDH1 R132H.

Consider `COCCC(=O)N1CCN(c2nc(C3CC3)c(-c3ccc(NS(C)(=O)=O)cc3)c(C)c2C#N)C[C@H]1C` [Compound 380, (R)—N-(4-{5-cyano-2-cyclopropyl-6-[4-(3-methoxy-propionyl)-3-methyl-piperazin-1-yl]-4-methyl-pyridin-3-yl}-phenyl)-methane sulfonamide], for which the IC50 with U87MG cells was 500 to 1000 nM; in the experiment with HT1080 cells, 500 to 1000 nM; on IDH1 R132H, below 500 nM.

Turning to `C=CC(=O)Nc1cccc(COc2cc(C#N)c(N3CCN(C(=O)CCOC)[C@H](C)C3)nc2C2CC2)c1` [Compound 381, (R)—N-(3-((5-cyano-2-cyclopropyl-6-(4-(3-methoxypropanoyl)-3-methylpiperazin-1-yl)pyridin-3-yloxy)methyl)phenyl)acrylamide], the IC50 with U87MG cells, with HT1080 cells and on IDH1 R132H was below 500 nM in each case.

For `COCCC(=O)N1CCN(c2nc(C3CC3)c(OCc3cccc(NC(=O)CBr)c3)cc2C#N)C[C@H]1C` [Compound 382, (R)-2-bromo-N-(3-((5-cyano-2-cyclopropyl-6-(4-(3-methoxypropanoyl)-3-methylpiperazin-1-yl)pyridin-3-yloxy)methyl)phenyl)acetamide], the IC50 was 500 to 1000 nM in the experiment with U87MG cells, below 500 nM in the experiment with HT1080 cells and below 500 nM at IDH1 R132H.

In the case of `COCCC(=O)N1CCN(c2nc(C3CC3)c(-c3ccc(N)cc3)cc2C#N)C[C@H]1C` [Compound 383, (R)-5-(4-aminophenyl)-6-cyclopropyl-2-(4-(3-methoxypropanoyl)-3-methylpiperazin-1-yl)nicotinonitrile], the IC50 in the experiment on U87MG cells was 1000 to 10000 nM; with HT1080 cells, 1000 to 10000 nM; at IDH1 R132H, below 500 nM.

On to `COCCC(=O)N1CCN(c2nc(C3CC3)c(-c3ccc4c(c3)CC(=O)N4)cc2C#N)C[C@H]1C` [Compound 384, (R)-6-cyclopropyl-2-(4-(3-methoxypropanoyl)-3-methylpiperazin-1-yl)-5-(2-oxoindolin-5-yl)nicotinonitrile], for which the values for the IC50 in the experiment on U87MG cells, with HT1080 cells and at IDH1 R132H were 500 to 1000 nM, 500 to 1000 nM and below 500 nM, respectively.

For orientation: IC50 means the concentration at which inhibition is half-maximal.
